Measurements as given in patent EP0603240B1, “SAFENING HERBICIDAL PYRAZOLYLSULFONYLUREAS” (priority 1991, dated 1993).

What was measured:
Type in all cases: in vivo
corn [1] = test: Example 3, Procedure I: antidotes against Herbicide No. 1
Method in brief: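 Herbicide and antidote, each in acetone, mixed into a soil layer covering the seeded corn bed; untreated and herbicide-only controls run alongside. Greenhouse, sub-irrigated, barnyardgrass present; herbicide 4.48 down to 0.56 kg/ha. Percent injury scored; efficacy = injury without minus with antidote.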

corn [2] = test: Example 6, Procedure II: Herbicide No. 1 + alachlor (No. 7) with antidotes
Method in brief: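 Herbicide No. 1 plus alachlor and antidote, each applied in acetone, mixed into silt loam cover soil over seeded corn; untreated and herbicide-only controls included. Given initial overhead irrigation equal to 0.6 cm rainfall, then greenhouse sub-irrigation. Percent injury scored, duplicate averages; efficacy is injury without minus with antidote.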

corn [3] = test: Example 12, Procedure II: Herbicide No. 1 + acetochlor (No. 6) with thirteen antidotes
Method in brief: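 Herbicide and antidote in acetone were mixed into silt loam used to cover the corn seed bed, alongside untreated and herbicide-only controls. After incorporation, an overhead irrigation equal to 0.6 cm rainfall was given, then sub-irrigation in a greenhouse. Injury was scored as percent; safening is the injury difference without versus with antidote.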

corn [4] = test: Example 13, Procedure II: Herbicide No. 1 + acetochlor (No. 6) with dichloroacetamide antidotes
Method in brief: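 Corn seeded in silt loam, covered with soil into which herbicide No. 1 plus acetochlor and dichloroacetamide antidote (acetone) were incorporated, velvetleaf present. Initial overhead irrigation equivalent to 0.6 cm rainfall, then greenhouse sub-irrigation. Percent injury scored; safening taken as injury difference without versus with antidote.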

[5] = tested on: Giant foxtail (Setaria fabergi); test: Example 24, Procedure II: Herbicide No. 1 + co-herbicides Nos. 4, 6, 7, 12 with Antidote Nos. 15 and 17-21
Method in brief: (§1)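 Greenhouse pots, herbicide No. 1 plus co-herbicides and antidote in acetone incorporated into silt loam soil covering the corn seed bed, with giant foxtail and velvetleaf; initial overhead irrigation equal to 0.6 cm rainfall, then sub-irrigation. Antidote at 2.24 kg/ha; percent injury read 13 days after application, duplicate average.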

corn [6] = test: as above
Method in brief: as §1

[7] = tested on: velvetleaf (Abutilon theophrasti); test: as above
Method in brief: as §1

[8] = Herb. No. 1 0.07 Kg/ha + Co-Herb. No. 4 1.12 Kg/ha + antidote 2.24 Kg/ha
[9] = Herb. No. 1 0.07 Kg/ha + Co-Herb. No. 6 0.14 Kg/ha + antidote 2.24 Kg/ha
[10] = Herb. No. 1 0.07 Kg/ha + Co-Herb. No. 7 0.28 Kg/ha + antidote 2.24 Kg/ha
[11] = Herb. No. 1 0.07 Kg/ha + Co-Herb. No. 12 0.28 Kg/ha + antidote 2.24 Kg/ha
[12] = Herb. No. 1 0.14 Kg/ha + Co-Herb. No. 4 1.12 Kg/ha + antidote 2.24 Kg/ha
[13] = Herb. No. 1 0.14 Kg/ha + Co-Herb. No. 6 0.14 Kg/ha + antidote 2.24 Kg/ha
[14] = Herb. No. 1 0.14 Kg/ha + Co-Herb. No. 7 0.28 Kg/ha + antidote 2.24 Kg/ha
[15] = Herb. No. 1 0.14 Kg/ha + Co-Herb. No. 12 0.28 Kg/ha + antidote 2.24 Kg/ha
[16] = Herb. No. 1 0.28 Kg/ha + Co-Herb. No. 4 1.12 Kg/ha + antidote 2.24 Kg/ha
[17] = Herb. No. 1 0.28 Kg/ha + Co-Herb. No. 6 0.14 Kg/ha + antidote 2.24 Kg/ha
[18] = Herb. No. 1 0.28 Kg/ha + Co-Herb. No. 7 0.28 Kg/ha + antidote 2.24 Kg/ha
[19] = Herb. No. 1 0.28 Kg/ha + Co-Herb. No. 12 0.28 Kg/ha + antidote 2.24 Kg/ha
[20] = Herb. No. 1 0.56 Kg/ha + Co-Herb. No. 4 1.12 Kg/ha + antidote 2.24 Kg/ha
[21] = Herb. No. 1 0.56 Kg/ha + Co-Herb. No. 6 0.14 Kg/ha + antidote 2.24 Kg/ha
[22] = Herb. No. 1 0.56 Kg/ha + Co-Herb. No. 7 0.28 Kg/ha + antidote 2.24 Kg/ha
[23] = Herb. No. 1 0.56 Kg/ha + Co-Herb. No. 12 0.28 Kg/ha + antidote 2.24 Kg/ha

CC1(C)OC(c2ccco2)CN1C(=O)C(Cl)Cl (stereo not shown) [compound 15]
% Injury Corn (corn [1]; Herb. No. 1 0.56 kg/ha + antidote 0.56 kg/ha): 0%
% Injury Corn (corn [1]; Herb. No. 1 0.56 kg/ha + antidote 2.24 kg/ha): 0%
% Injury Corn (corn [1]; Herb. No. 1 0.56 kg/ha + antidote 8.96 kg/ha): 0%
% Injury Corn (corn [1]; Herb. No. 1 1.12 kg/ha + antidote 0.56 kg/ha): 0%
% Injury Corn (corn [1]; Herb. No. 1 1.12 kg/ha + antidote 2.24 kg/ha): 0%
% Injury Corn (corn [1]; Herb. No. 1 1.12 kg/ha + antidote 8.96 kg/ha): 0%
% Injury Corn (corn [1]; Herb. No. 1 2.24 kg/ha + antidote 0.56 kg/ha): 15%
% Injury Corn (corn [1]; Herb. No. 1 2.24 kg/ha + antidote 2.24 kg/ha): 0%
% Injury Corn (corn [1]; Herb. No. 1 2.24 kg/ha + antidote 8.96 kg/ha): 0%
% Injury Corn (corn [1]; Herb. No. 1 4.48 kg/ha + antidote 0.56 kg/ha): 0%
% Injury Corn (corn [1]; Herb. No. 1 4.48 kg/ha + antidote 2.24 kg/ha): 5%
% Injury Corn (corn [1]; Herb. No. 1 4.48 kg/ha + antidote 8.96 kg/ha): 0%
% Injury Corn (corn [1]; antidote 8.96 kg/ha alone, no herbicide): 0%
% Injury Corn (corn [2]; Herbicide No.1 0.14 + No.7 4.48 kg/ha + antidote 2.24 kg/ha): 20%
% Injury Corn (corn [2]; Herbicide No.1 0.14 + No.7 4.48 kg/ha + antidote 8.96 kg/ha): 10%
% Injury Corn (corn [2]; Herbicide No.1 0.56 + No.7 4.48 kg/ha + antidote 2.24 kg/ha): 15%
% Injury Corn (corn [2]; Herbicide No.1 0.56 + No.7 4.48 kg/ha + antidote 8.96 kg/ha): 15%
% Injury Corn (corn [3]; Herbicide No.1 0.14 kg/ha + Herbicide No.6 2.24 kg/ha, antidote rate 2.24 kg/ha): 15%
% Injury Corn (corn [3]; Herbicide No.1 0.14 kg/ha + Herbicide No.6 2.24 kg/ha, antidote rate 8.96 kg/ha): 10%
% Injury Corn (corn [3]; Herbicide No.1 0.56 kg/ha + Herbicide No.6 2.24 kg/ha, antidote rate 2.24 kg/ha): 20%
% Injury Corn (corn [3]; Herbicide No.1 0.56 kg/ha + Herbicide No.6 2.24 kg/ha, antidote rate 8.96 kg/ha): 5%
% Injury Corn (corn [4]; Herbicide No.1 0.56 kg/ha + Herbicide No.6 4.48 kg/ha, antidote rate 0.56 kg/ha): 5%
% Injury Corn (corn [4]; Herbicide No.1 0.56 kg/ha + Herbicide No.6 4.48 kg/ha, antidote rate 2.24 kg/ha): 15%
% Injury Corn (corn [4]; Herbicide No.6 4.48 kg/ha, no Herbicide No.1, antidote rate 0.56 kg/ha): 5%
% Injury Corn (corn [4]; Herbicide No.6 4.48 kg/ha, no Herbicide No.1, antidote rate 2.24 kg/ha): 15%
% Inhibition GFT [5, 8]: 40%
% Inhibition GFT [5, 9]: 100%
% Inhibition GFT [5, 10]: 100%
% Inhibition GFT [5, 11]: 99%
% Inhibition GFT [5, 12]: 65%
% Inhibition GFT [5, 13]: 100%
% Inhibition GFT [5, 14]: 100%
% Inhibition GFT [5, 15]: 99%
% Inhibition GFT [5, 16]: 60%
% Inhibition GFT [5, 17]: 100%
% Inhibition GFT [5, 18]: 100%
% Inhibition GFT [5, 19]: 100%
% Inhibition GFT [5, 20]: 60%
% Inhibition GFT [5, 21]: 99%
% Inhibition GFT [5, 22]: 100%
% Inhibition GFT [5, 23]: 99%
% Inhibition Corn (corn [6]; [8]): 0%
% Inhibition Corn (corn [6]; [9]): 5%
% Inhibition Corn (corn [6]; [10]): 0%
% Inhibition Corn (corn [6]; [11]): 5%
% Inhibition Corn (corn [6]; [12]): 10%
% Inhibition Corn (corn [6]; [13]): 5%
% Inhibition Corn (corn [6]; [14]): 0%
% Inhibition Corn (corn [6]; [15]): 5%
% Inhibition Corn (corn [6]; [16]): 5%
% Inhibition Corn (corn [6]; [17]): 10%
% Inhibition Corn (corn [6]; [18]): 0%
% Inhibition Corn (corn [6]; [19]): 5%
% Inhibition Corn (corn [6]; [20]): 15%
% Inhibition Corn (corn [6]; [21]): 10%
% Inhibition Corn (corn [6]; [22]): 5%
% Inhibition Corn (corn [6]; [23]): 5%
% Inhibition VL [7, 8]: 90%
% Inhibition VL [7, 9]: 95%
% Inhibition VL [7, 10]: 85%
% Inhibition VL [7, 11]: 90%
% Inhibition VL [7, 12]: 95%
% Inhibition VL [7, 13]: 85%
% Inhibition VL [7, 14]: 95%
% Inhibition VL [7, 15]: 95%
% Inhibition VL [7, 16]: 95%
% Inhibition VL [7, 17]: 98%
% Inhibition VL [7, 18]: 95%
% Inhibition VL [7, 19]: 98%
% Inhibition VL [7, 20]: 95%
% Inhibition VL [7, 21]: 99%
% Inhibition VL [7, 22]: 98%
% Inhibition VL [7, 23]: 99%
